Reference: patent publication US11702422B2, “Imidazopyridazines as modulators of IL-17” (Janssen Pharmaceutica NV, priority 2020, dated 2023)

Assays:
[1] = test system: IL-17A-induced G-CSF production in human normal keratinocyte (NHK); assay: NHK Assay: IL-17A-induced G-CSF production in human normal keratinocytes; type: cell-based; settings: adult normal human keratinocytes, IL-17A 5 ng/mL, 24 h, simple average if tested more than once
In short: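 Inhibition of IL-17A-driven G-CSF release is measured in adult keratinocytes stimulated for 24 h at 37° C with 5 ng/mL human IL-17A that had been pre-incubated with compound for 1 h. IC50 comes from HTRF G-CSF levels; cell viability is checked in parallel by luminescent ATP assay.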

[2] = molecular target: IL-17A(FLAG-Tagged): IL-17RA(His-Tagged) (Homo sapiens, UniProt Q16552, K93Q); assay: IL-17A(FLAG-Tagged): IL-17RA(His-Tagged) Binding Disruption Eu-HTRF Assay; settings: IL-17A/IL-17RA binding disruption, simple average if tested more than once
Chain of UniProt Q16552 (Q16552 with tags, fused parts or gaps K93Q): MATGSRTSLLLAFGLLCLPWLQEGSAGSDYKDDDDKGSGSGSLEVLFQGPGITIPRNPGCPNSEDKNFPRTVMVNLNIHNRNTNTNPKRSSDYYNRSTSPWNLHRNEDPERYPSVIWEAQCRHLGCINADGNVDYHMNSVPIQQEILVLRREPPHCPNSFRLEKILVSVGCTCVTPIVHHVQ
In short: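 IC50 comes from a one-site competition fit of the HTRF 665/620 nm ratio. Compound dilutions (2-fold, 22 points) were held 1 h rt with FLAG-tagged IL-17A dimer, then His-tagged IL-17RA plus Eu-cryptate anti-FLAG and D2 anti-His antibodies were added for 2 h rt.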

IC50 [2] [nM]	Compound	IC50 [1] [nM]	IC50 ([1]; Homo sapiens, Keratinocyte) [nM]
51	CC(CC(=O)N[C@@H](c1cnn2cc([C@@H](NC(=O)c3conc3C3CC3)C3CCC(F)(F)CC3)nc2c1)C1CC1)C(F)(F)F (single isomer, unassigned) [Example 129, 3-Cyclopropyl-N—((S)-(7-((R)-cyclopropyl((S*)-4,4,4-trifluoro-3-methylbutanamido)methyl)imidazo[1,2-b]pyridazin-2-yl)(4,4-difluorocyclohexyl)methyl)isoxazole-4-carboxamide]	250	–
110	CC(C)n1nccc1C(=O)N[C@H](c1cn2ncc(C(NC(=O)CCC(F)F)C3CC3)cc2n1)C1CCC(F)(F)CC1 (single isomer, unassigned) [Example 135, N-((1S)-(7-((R*)-Cyclopropyl(4,4-difluorobutanamido)methyl)imidazo[1,2-b]pyridazin-2-yl)(4,4-difluorocyclohexyl)methyl)-1-isopropyl-1H-pyrazole-5-carboxamide]	–	230
400	CC(C)n1nccc1C(=O)N[C@H](c1cn2ncc(C(NC(=O)CC(C)(C)O)C3CC3)cc2n1)C1CCC(F)(F)CC1 (single isomer, unassigned) [Example 136, N—((S)-(7-((R*)-Cyclopropyl(3-hydroxy-3-methylbutanamido)methyl)imidazo[1,2-b]pyridazin-2-yl)(4,4-difluorocyclohexyl)methyl)-1-isopropyl-1H-pyrazole-5-carboxamide]	790	–
14000	CC(C)n1nccc1C(=O)N[C@H](c1cn2ncc(C(NC(=O)CC(C)(C)O)C3CC3)cc2n1)C1CCC(F)(F)CC1 (single isomer, unassigned) [Example 137, N—((S)-(7-((S*)-Cyclopropyl(3-hydroxy-3-methylbutanamido)methyl)imidazo[1,2-b]pyridazin-2-yl)(4,4-difluorocyclohexyl)methyl)-1-isopropyl-1H-pyrazole-5-carboxamide]	> 20000	–
780	CC(C)n1nccc1C(=O)N[C@H](c1cn2ncc([C@@H](NC(=O)C[C@H]3CC3(F)F)C3CC3)cc2n1)C1CCC(F)(F)CC1 (single isomer, unassigned) [Example 138]	–	1300
730	CC(C)n1nccc1C(=O)N[C@H](c1cn2ncc([C@@H](NC(=O)C[C@@H]3CC3(F)F)C3CC3)cc2n1)C1CCC(F)(F)CC1 (single isomer, unassigned) [Example 139]	–	690
70	CC(C)n1nccc1C(=O)N[C@H](c1cn2ncc([C@H](NC(=O)C[C@H]3CC3(F)F)C3CC3)cc2n1)C1CCC(F)(F)CC1 (single isomer, unassigned) [Example 140]	–	89
130	CC(C)n1nccc1C(=O)N[C@H](c1cn2ncc([C@H](NC(=O)C[C@@H]3CC3(F)F)C3CC3)cc2n1)C1CCC(F)(F)CC1 (single isomer, unassigned) [Example 141]	–	200
430	CC(C)C(NC(=O)CCC(F)(F)F)c1cnn2cc([C@@H](NC(=O)c3ccnn3C(C)C)C3CCC(F)(F)CC3)nc2c1 (single isomer, unassigned) [Example 154, N—((S)-(4,4-Difluorocyclohexyl)(7-((R*)-2-methyl-1-(4,4,4-trifluorobutanamido)propyl)imidazo[1,2-b]pyridazin-2-yl)methyl)-1-isopropyl-1H-pyrazole-5-carboxamide]	640	–
130	CC(C)C(NC(=O)CCC(F)(F)F)c1cnn2cc([C@@H](NC(=O)c3ccnn3C(C)C)C3CCC(F)(F)CC3)nc2c1 (single isomer, unassigned) [Example 155, N—((S)-(4,4-Difluorocyclohexyl)(7-((S*)-2-methyl-1-(4,4,4-trifluorobutanamido)propyl)imidazo[1,2-b]pyridazin-2-yl)methyl)-1-isopropyl-1H-pyrazole-5-carboxamide]	53	–
89	Cc1nonc1C(=O)N[C@H](c1cn2ncc([C@H](NC(=O)CC(C)C(F)(F)F)C3CC3)cc2n1)C1CCC(F)(F)CC1 (single isomer, unassigned) [Example 243, N—((S)-(7-((R)-Cyclopropyl((R*)-4,4,4-trifluoro-3-methylbutanamido)methyl)imidazo[1,2-b]pyridazin-2-yl)(4,4-difluorocyclohexyl)methyl)-4-methyl-1,2,5-oxadiazole-3-carboxamide]	–	270
110	CC(C)n1nccc1C(=O)N[C@H](c1cn2ncc([C@H](NC(=O)C[C@H]3C[C@@H](F)C3)C3CC3)cc2n1)C1CCC(F)(F)CC1 (single isomer, unassigned) [Example 257]	–	120
130	CC(C)n1nccc1C(=O)N[C@H](c1cn2ncc([C@H](NC(=O)C[C@H]3C[C@H](F)C3)C3CC3)cc2n1)C1CCC(F)(F)CC1 (single isomer, unassigned) [Example 258]	–	46
48	Cc1nonc1C(=O)N[C@H](c1cn2ncc([C@H](NC(=O)CC(C)C(F)F)C3CC3)cc2n1)C1CCC(F)(F)CC1 (single isomer, unassigned) [Example 264, N—((S)-(7-((R)-Cyclopropyl((R*)-4,4-difluoro-3-methylbutanamido)methyl)imidazo[1,2-b]pyridazin-2-yl)(4,4-difluorocyclohexyl)methyl)-4-methyl-1,2,5-oxadiazole-3-carboxamide]	350	–
210	Cc1nonc1C(=O)N[C@H](c1cn2ncc([C@H](NC(=O)CC(C)C(F)F)C3CC3)cc2n1)C1CCC(F)(F)CC1 (single isomer, unassigned) [Example 265, N—((S)-(7-((R)-Cyclopropyl((S*)-4,4-difluoro-3-methylbutanamido)methyl)imidazo[1,2-b]pyridazin-2-yl)(4,4-difluorocyclohexyl)methyl)-4-methyl-1,2,5-oxadiazole-3-carboxamide]	1100	–
56	Cc1nonc1C(=O)N[C@H](c1cn2ncc([C@H](NC(=O)C[C@H]3C[C@H](F)C3)C3CC3)cc2n1)C1CCC(F)(F)CC1 (single isomer, unassigned) [Example 266]	–	290
87	Cc1nonc1C(=O)N[C@H](c1cn2ncc([C@H](NC(=O)C[C@H]3C[C@@H](F)C3)C3CC3)cc2n1)C1CCC(F)(F)CC1 (single isomer, unassigned) [Example 267]	–	350
150	CC(C)n1nccc1C(=O)N[C@H](c1cn2ncc([C@H](NC(=O)CCC3CC3(F)F)C3CC3)cc2n1)C1CCC(F)(F)CC1 (single isomer, unassigned) [Example 270, N—((S)-(7-((R)-Cyclopropyl(3-((R*)-2,2-difluorocyclopropyl)propanamido)methyl)imidazo[1,2-b]pyridazin-2-yl)(4,4-difluorocyclohexyl)methyl)-1-isopropyl-1H-pyrazole-5-carboxamide]	–	38
140	CC(C)n1nccc1C(=O)N[C@H](c1cn2ncc([C@H](NC(=O)CCC3CC3(F)F)C3CC3)cc2n1)C1CCC(F)(F)CC1 (single isomer, unassigned) [Example 271, N—((S)-(7-((R)-Cyclopropyl(3-((S*)-2,2-difluorocyclopropyl)propanamido)methyl)imidazo[1,2-b]pyridazin-2-yl)(4,4-difluorocyclohexyl)methyl)-1-isopropyl-1H-pyrazole-5-carboxamide]	67	–
250	CC(CC(=O)N[C@@H](c1cnn2cc([C@@H](NC(=O)c3conc3OCC(F)F)C3CCC(F)(F)CC3)nc2c1)C1CC1)C(F)(F)F (single isomer, unassigned) [Example 298, N—((S)-(7-((R)-Cyclopropyl((R*)-4,4,4-trifluoro-3-methylbutanamido)methyl)imidazo[1,2-b]pyridazin-2-yl)(4,4-difluorocyclohexyl)methyl)-3-(2,2-difluoroethoxy)isoxazole-4-carboxamide]	–	610
300	CC(CC(=O)N[C@@H](c1cnn2cc([C@@H](NC(=O)c3conc3OCC(F)F)C3CCC(F)(F)CC3)nc2c1)C1CC1)C(F)(F)F (single isomer, unassigned) [Example 299, N—((S)-(7-((R)-Cyclopropyl((S*)-4,4,4-trifluoro-3-methylbutanamido)methyl)imidazo[1,2-b]pyridazin-2-yl)(4,4-difluorocyclohexyl)methyl)-3-(2,2-difluoroethoxy)isoxazole-4-carboxamide]	840	–
110	CC(CC(=O)N[C@@H](c1cnn2cc([C@@H](NC(=O)c3nonc3C3CC3)C3CCC(F)(F)CC3)nc2c1)C1CC1)C(F)(F)F (single isomer, unassigned) [Example 300, 4-Cyclopropyl-N—((S)-(7-((R)-cyclopropyl((R*)-4,4,4-trifluoro-3-methylbutanamido)methyl)imidazo[1,2-b]pyridazin-2-yl)(4,4-difluorocyclohexyl)methyl)-1,2,5-oxadiazole-3-carboxamide]	320	–
53	CC(CC(=O)N[C@@H](c1cnn2cc([C@@H](NC(=O)c3nonc3C3CC3)C3CCC(F)(F)CC3)nc2c1)C1CC1)C(F)(F)F (single isomer, unassigned) [Example 301, 4-Cyclopropyl-N—((S)-(7-((R)-cyclopropyl((S*)-4,4,4-trifluoro-3-methylbutanamido)methyl)imidazo[1,2-b]pyridazin-2-yl)(4,4-difluorocyclohexyl)methyl)-1,2,5-oxadiazole-3-carboxamide]	56	–
